Assay results: ChEMBL document CHEMBL1649287, “Postantibiotic effect of ceftaroline against gram-positive organisms” (2009)
≈ marks a conversion by molar mass, not a printed value.

Columns and labels:
Type in all cases: functional
Staphylococcus aureus [1] = assay: Antimicrobial activity against methicillin-resistant, vancomycin-resistant Staphylococcus aureus 770 assessed as time required to induce sub-MIC effect at 0.2 times MIC after 1 hr by plate counting method; details: Staphylococcus aureus, 770, 1 h
Streptococcus pneumoniae [2] = assay: Antimicrobial activity against Penicillin-, erythromycin-resistant Streptococcus pneumoniae 37 assessed as time required to induce post antibiotic sub-MIC effect at 0.2 times MIC after 1 hr by plate counting method; details: Streptococcus pneumoniae, 37, 1 h
Staphylococcus aureus [3] = assay: Antimicrobial activity against methicillin-susceptible, vancomycin-susceptible Staphylococcus aureus ATCC 29213 assessed as time required to induce post antibiotic sub-MIC effect at 0.2 times MIC after 1 hr by plate counting method; details: ATCC 29213, 1 h
Staphylococcus aureus [4] = assay: Antimicrobial activity against methicillin-susceptible, vancomycin-susceptible Staphylococcus aureus sox1 assessed as time required to induce post antibiotic sub-MIC effect at 0.2 times MIC after 1 hr by plate counting method; details: sox1, 1 h
Staphylococcus aureus [5] = assay: Antimicrobial activity against methicillin-resistant, vancomycin-hetroresistant Staphylococcus aureus 618 assessed as time required to induce post antibiotic sub-MIC effect at 0.2 times MIC after 1 hr by plate counting method; details: Staphylococcus aureus, 618, 1 h
Staphylococcus aureus [6] = assay: Antimicrobial activity against methicillin-resistant, vancomycin-intermediate Staphylococcus aureus 510 assessed as time required to induce post antibiotic sub-MIC effect at 0.2 times MIC after 1 hr by plate counting method; details: Staphylococcus aureus, 510, 1 h
Enterococcus faecalis [7] = assay: Antimicrobial activity against vancomycin-sensitive Enterococcus faecalis ATCC 29212 assessed as time required to induce post antibiotic sub-MIC effect at 0.2 times MIC after 1 hr by plate counting method; details: ATCC 29212, 1 h
Streptococcus pneumoniae [8] = assay: Antimicrobial activity against Penicillin-intermediate Streptococcus pneumoniae s1234 assessed as time required to induce sub-MIC effect at 0.3 times MIC after 1 hr by plate counting method
Streptococcus pneumoniae [9] = assay: Antimicrobial activity against Penicillin-, erythromycin-resistant Streptococcus pneumoniae 37 assessed as time required to induce sub-MIC effect at 0.3 times MIC after 1 hr by plate counting method; details: Streptococcus pneumoniae, 37, 1 h
Staphylococcus aureus [10] = assay: Antimicrobial activity against methicillin-resistant, vancomycin-susceptible Staphylococcus aureus vs1 assessed as time required to induce sub-MIC effect at 0.3 times MIC after 1 hr by plate counting method; details: vs1, 1 h
Enterococcus faecalis [11] = assay: Antimicrobial activity against vancomycin-sensitive Enterococcus faecalis 20 assessed as time required to induce sub-MIC effect at 0.3 times MIC after 1 hr by plate counting method; details: Enterococcus faecalis, 20, 1 h
Enterococcus faecalis [12] = assay: Antimicrobial activity against vancomycin-sensitive Enterococcus faecalis ATCC 29212 assessed as time required to induce sub-MIC effect at 0.3 times MIC after 1 hr by plate counting method; details: ATCC 29212, 1 h
Streptococcus pneumoniae [13] = assay: Antimicrobial activity against Penicillin-susceptible Streptococcus pneumoniae s502 assessed as time required to induce post antibiotic sub-MIC effect at 0.3 times MIC after 1 hr by plate counting method; details: s502, 1 h
Staphylococcus aureus [14] = assay: Antimicrobial activity against methicillin-susceptible, vancomycin-susceptible Staphylococcus aureus sox1 assessed as time required to induce post antibiotic sub-MIC effect at 0.3 times MIC after 1 hr by plate counting method; details: sox1, 1 h
Staphylococcus aureus [15] = assay: Antimicrobial activity against methicillin-resistant, vancomycin-hetroresistant Staphylococcus aureus 618 assessed as time required to induce post antibiotic sub-MIC effect at 0.3 times MIC after 1 hr by plate counting method; details: Staphylococcus aureus, 618, 1 h
Staphylococcus aureus [16] = assay: Antimicrobial activity against methicillin-resistant, vancomycin-resistant Staphylococcus aureus 770 assessed as time required to induce post antibiotic sub-MIC effect at 0.3 times MIC after 1 hr by plate counting method; details: Staphylococcus aureus, 770, 1 h
Staphylococcus aureus [17] = assay: Antimicrobial activity against methicillin-resistant, vancomycin-intermediate Staphylococcus aureus 510 assessed as time required to induce post antibiotic sub-MIC effect at 0.3 times MIC after 1 hr by plate counting method; details: Staphylococcus aureus, 510, 1 h
Streptococcus pneumoniae [18] = assay: Antimicrobial activity against Penicillin-intermediate Streptococcus pneumoniae s1234 assessed as time required to induce sub-MIC effect at 0.4 times MIC after 1 hr by plate counting method; details: s1234, 1 h
Staphylococcus aureus [19] = assay: Antimicrobial activity against methicillin-susceptible, vancomycin-susceptible Staphylococcus aureus ATCC 29213 assessed as time required to induce sub-MIC effect at 0.4 times MIC after 1 hr by plate counting method; details: ATCC 29213, 1 h
Staphylococcus aureus [20] = assay: Antimicrobial activity against methicillin-resistant, vancomycin-susceptible Staphylococcus aureus vs1 assessed as time required to induce sub-MIC effect at 0.4 times MIC after 1 hr by plate counting method; details: vs1, 1 h
Streptococcus pneumoniae [21] = assay: Antimicrobial activity against Penicillin-susceptible Streptococcus pneumoniae s502 assessed as time required to induce post antibiotic sub-MIC effect at 0.4 times MIC after 1 hr by plate counting method; details: s502, 1 h
Streptococcus pneumoniae [22] = assay: Antimicrobial activity against Penicillin-susceptible Streptococcus pneumoniae ATCC 49617 assessed as time required to induce post antibiotic sub-MIC effect at 0.4 times MIC after 1 hr by plate counting method; details: ATCC 49617, 1 h
Streptococcus pneumoniae [23] = assay: Antimicrobial activity against Penicillin-intermediate Streptococcus pneumoniae s1234 assessed as time required to induce post antibiotic sub-MIC effect at 0.4 times MIC after 1 hr by plate counting method; details: s1234, 1 h
Streptococcus pneumoniae [24] = assay: Antimicrobial activity against Penicillin-, erythromycin-resistant Streptococcus pneumoniae 37 assessed as time required to induce post antibiotic sub-MIC effect at 0.4 times MIC after 1 hr by plate counting method; details: Streptococcus pneumoniae, 37, 1 h
Enterococcus faecalis [25] = assay: Antimicrobial activity against vancomycin-sensitive Enterococcus faecalis 10 assessed as time required to induce post antibiotic sub-MIC effect at 0.4 times MIC after 1 hr by plate counting method; details: Enterococcus faecalis, 10, 1 h
Enterococcus faecalis [26] = assay: Antimicrobial activity against vancomycin-sensitive Enterococcus faecalis 20 assessed as time required to induce post antibiotic sub-MIC effect at 0.4 times MIC after 1 hr by plate counting method; details: Enterococcus faecalis, 20, 1 h
Staphylococcus aureus [27] = assay: Antimicrobial activity against methicillin-resistant, vancomycin-resistant Staphylococcus aureus 770 by microdilution method
Enterococcus faecalis [28] = assay: Antimicrobial activity against vancomycin-sensitive Enterococcus faecalis ATCC 29212 by microdilution method
Streptococcus pneumoniae [29] = assay: Antimicrobial activity against Penicillin-, erythromycin-resistant Streptococcus pneumoniae 37 assessed as post antibiotic effect at 10 times MIC after 1 hr by plate counting method; details: Streptococcus pneumoniae, 37, 1 h
Staphylococcus aureus [30] = assay: Antimicrobial activity against methicillin-resistant, vancomycin-susceptible Staphylococcus aureus vs1 assessed as post antibiotic effect at 10 times MIC after 1 hr by plate counting method; details: vs1, 1 h
Staphylococcus aureus [31] = assay: Antimicrobial activity against methicillin-resistant, vancomycin-intermediate Staphylococcus aureus 510 assessed as post antibiotic effect at 10 times MIC after 1 hr by plate counting method; details: Staphylococcus aureus, 510, 1 h
Streptococcus pneumoniae [32] = assay: Antimicrobial activity against Penicillin-, erythromycin-resistant Streptococcus pneumoniae 37 assessed as time required to induce sub-MIC effect at 0.2 times MIC after 1 hr by plate counting method; details: Streptococcus pneumoniae, 37, 1 h
Staphylococcus aureus [33] = assay: Antimicrobial activity against methicillin-susceptible, vancomycin-susceptible Staphylococcus aureus ATCC 29213 assessed as time required to induce sub-MIC effect at 0.2 times MIC after 1 hr by plate counting method; details: ATCC 29213, 1 h

For CCO/N=C(\C(=O)N[C@@H]1C(=O)N2C(C(=O)[O-])=C(Sc3nc(-c4cc[n+](C)cc4)cs3)CS[C@H]12)c1nsc(NP(=O)(O)O)n1 [CEFTAROLINE FOSAMIL], the time (Staphylococcus aureus [1]) was 0.3 h, the time (Streptococcus pneumoniae [2]) was 1.9 h and the PAE (Staphylococcus aureus [3]) was 2.5 h. The time (Staphylococcus aureus [4]) was 2.2 h, the time (Staphylococcus aureus [5]) was 2.2 h and the time (Staphylococcus aureus [6]) was 5.4 h. For the same compound, the PAE (Enterococcus faecalis [7]) was 7.6 h, the PAE (Streptococcus pneumoniae [8]) was 0 h and the time (Streptococcus pneumoniae [9]) was 0.5 h. The time (Staphylococcus aureus [10]) was 0.7 h, the PAE (Enterococcus faecalis [11]) was 1.3 h and the PAE (Enterococcus faecalis [12]) was 3.6 h. It also gave a PAE (Streptococcus pneumoniae [13]) of 3.5 h, a PAE (Staphylococcus aureus [14]) of 3.6 h and a time (Staphylococcus aureus [15]) of 2.7 h. For the same compound, the time (Staphylococcus aureus [16]) was 5 h, the time (Staphylococcus aureus [17]) was greater than 9.1 h and the PAE (Streptococcus pneumoniae [18]) was 0.6 h. For the same compound, the PAE (Staphylococcus aureus [19]) was 2.8 h, the time (Staphylococcus aureus [20]) was 1.2 h and the PAE (Streptococcus pneumoniae [21]) was 4.5 h. It also gave a PAE (Streptococcus pneumoniae [22]) of 7.2 h, a PAE (Streptococcus pneumoniae [23]) of 2.5 h and a time (Streptococcus pneumoniae [24]) of 3.7 h. The PAE (Enterococcus faecalis [25]) was 8.5 h, the PAE (Enterococcus faecalis [26]) was 10.5 h and the MIC (Staphylococcus aureus [27]) was 1 µg/mL (≈ 1.46 µM). The MIC (Enterococcus faecalis [28]) was 1 µg/mL (≈ 1.46 µM), the PAE (Streptococcus pneumoniae [29]) was 1.5 h and the PAE (Staphylococcus aureus [30]) was 1.2 h. For the same compound, the PAE (Staphylococcus aureus [31]) was 1.4 h, the time (Streptococcus pneumoniae [32]) was 0.5 h and the PAE (Staphylococcus aureus [33]) was 0.2 h.
